In ChEMBL document CHEMBL3817791, “Discovery of 4-(4-aminopyrazolo[1,5-a][1,3,5]triazin-8-yl)benzamides as novel, highly potent and selective, orally bioavailable inhibitors of Tyrosine Threonine Kinase, TTK” (Bioorg Med Chem Lett, 2016):

Molecular target: T1, Serine/threonine-protein kinase PLK4 (Homo sapiens, UniProt O00444)
T1 sequence (O00444 whole entry): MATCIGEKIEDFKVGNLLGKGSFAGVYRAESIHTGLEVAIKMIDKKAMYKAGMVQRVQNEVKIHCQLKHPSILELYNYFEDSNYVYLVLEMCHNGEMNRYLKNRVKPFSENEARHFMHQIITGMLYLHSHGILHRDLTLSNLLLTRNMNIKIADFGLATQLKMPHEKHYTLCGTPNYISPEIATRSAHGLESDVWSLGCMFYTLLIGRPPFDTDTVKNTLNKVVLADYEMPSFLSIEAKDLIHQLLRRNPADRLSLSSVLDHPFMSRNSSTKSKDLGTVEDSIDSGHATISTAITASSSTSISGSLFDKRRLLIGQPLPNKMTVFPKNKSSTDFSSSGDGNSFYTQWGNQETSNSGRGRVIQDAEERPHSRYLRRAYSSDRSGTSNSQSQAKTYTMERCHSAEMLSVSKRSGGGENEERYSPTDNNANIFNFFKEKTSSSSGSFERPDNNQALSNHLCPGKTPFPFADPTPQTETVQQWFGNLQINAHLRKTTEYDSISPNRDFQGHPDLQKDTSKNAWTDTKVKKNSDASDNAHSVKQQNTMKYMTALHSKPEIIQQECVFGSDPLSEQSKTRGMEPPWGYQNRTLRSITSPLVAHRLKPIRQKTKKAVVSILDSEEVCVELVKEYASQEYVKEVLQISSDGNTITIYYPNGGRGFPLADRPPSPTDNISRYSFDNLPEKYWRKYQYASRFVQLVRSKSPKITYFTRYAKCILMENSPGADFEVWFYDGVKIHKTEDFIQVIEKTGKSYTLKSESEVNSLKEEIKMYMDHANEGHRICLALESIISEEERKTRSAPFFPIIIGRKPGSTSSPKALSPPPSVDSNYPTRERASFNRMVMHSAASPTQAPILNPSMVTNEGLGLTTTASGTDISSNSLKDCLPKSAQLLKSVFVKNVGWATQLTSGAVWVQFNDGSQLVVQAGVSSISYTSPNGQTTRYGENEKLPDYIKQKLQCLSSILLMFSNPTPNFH
Assay: Inhibition of human PLK4 by radiometric assay

IC50: > 50 µM
Compound: Cc1cc(-c2cnn3c(NCC4CCOCC4)nc(Oc4ccccc4)nc23)ccc1C(=O)NC1CC1
